Experimental data published in patent US8207209B2, “Methods of inhibiting viral infection” (priority 2007, dated 2012).
Entries after “also recorded” stand apart in the source; their conditions may differ.

How the values were obtained:
Influenza = format: cell-based, influenza virus
PRRS virus = format: cell-based
Bovine Corona virus = format: cell-based
Ebola virus [1] = tested on: Ebola virus; parameters: species or system mice; conditions: mouse, in vivo
Marburg virus [2] = tested on: Marburg virus; parameters: species or system mice; conditions: mouse, in vivo
Ebola virus [3] = assay: microbe, parasite or virus in culture; format: cell-based
Marburg virus [4] = assay: organism not typed; format: cell-based
Dengue serotypes = format: cell-based, Dengue virus
[5] = tested on: Paramyxoviruses including Parainfluenza and Respiratory Syncitial Virus; format: cell-based
Hepatitis B virus (HBV) = assay: Hepatitis B virus cell based assay; conditions: dose response
[6] = mouse, in vivo
[7] = mouse, in vivo, ip
in vivo = conditions: mouse, ip, 10 mg/kg
[8] = Serum concentration of 723 in guinea pigs; conditions: guinea pig
[9] = In vivo safety/toxicity (LD50) study of 723
wide variety of cells = assay: CC50 cytotoxicity of 723 in a variety of cell types; conditions: cell based assays against a wide variety of cells
cowpox virus [10] = format: cell-based
Hepatitis C Virus = format: cell-based
Lassa Fever Virus = format: cell-based
West Nile Virus = format: cell-based
Caspase 1 = Caspase 1 (Homo sapiens, UniProt P29466); format: biochemical
Caspase 2 = Caspase 2 (Homo sapiens, UniProt P42575); format: biochemical
Caspase 3 = Caspase 3 (Homo sapiens, UniProt P42574); format: biochemical
Caspase 8 = Caspase 8 (Homo sapiens, UniProt Q14790); format: biochemical
Caspase 4 = Caspase 4 (Homo sapiens, UniProt P49662); assay: Caspase inhibition; format: biochemical
Caspase 9 = Caspase 9 (Homo sapiens, UniProt P55211); format: biochemical
Caspase 10 = Caspase 10 (Homo sapiens, UniProt Q92851); assay: Caspase inhibition; format: biochemical
HIV = HIV infection in MT-4 cells; format: cell-based; conditions: modest concentrations
Rift Valley Fever Virus = format: cell-based
SARS = format: cell-based
cowpox virus [11] = tested on: cowpox virus; parameters: species or system mice; conditions: mouse, in vivo
PBMC = assay: Cytokine levels in PBMC; conditions: 5 uM dose
[12] = Serum levels of 365 in BALB/c mice; conditions: 5 mg/kg dose
[13] = Response of mice to doses of 365 (safety)

Sequence of Caspase 1 (P29466 120-297 limits assumed, species assumed): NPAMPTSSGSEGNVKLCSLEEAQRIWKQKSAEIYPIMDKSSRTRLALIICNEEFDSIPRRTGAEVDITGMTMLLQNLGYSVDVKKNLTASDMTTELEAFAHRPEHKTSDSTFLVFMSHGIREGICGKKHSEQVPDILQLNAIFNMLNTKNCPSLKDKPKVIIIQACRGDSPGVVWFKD
Sequence of Caspase 1 (P29466 317-404 limits assumed, species assumed): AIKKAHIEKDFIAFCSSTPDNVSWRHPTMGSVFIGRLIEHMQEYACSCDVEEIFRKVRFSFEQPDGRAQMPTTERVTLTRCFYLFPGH
Sequence of Caspase 8 (Q14790 217-374 limits assumed, species assumed): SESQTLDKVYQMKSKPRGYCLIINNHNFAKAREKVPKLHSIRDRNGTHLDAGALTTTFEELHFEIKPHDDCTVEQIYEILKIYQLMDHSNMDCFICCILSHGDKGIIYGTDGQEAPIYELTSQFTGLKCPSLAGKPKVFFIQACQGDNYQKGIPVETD
Sequence of Caspase 8 (Q14790 385-479 limits assumed, species assumed): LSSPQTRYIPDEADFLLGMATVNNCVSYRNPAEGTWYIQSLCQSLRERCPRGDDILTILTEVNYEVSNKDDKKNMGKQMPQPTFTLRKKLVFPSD
Sequence of Caspase 2 (P42575 170-325 limits assumed, species assumed): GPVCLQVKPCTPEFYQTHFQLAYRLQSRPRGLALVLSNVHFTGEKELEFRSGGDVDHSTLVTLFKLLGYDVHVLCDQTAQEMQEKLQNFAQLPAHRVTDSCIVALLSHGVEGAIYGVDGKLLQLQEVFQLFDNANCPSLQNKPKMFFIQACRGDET
Sequence of Caspase 2 (P42575 348-452 limits assumed, species assumed): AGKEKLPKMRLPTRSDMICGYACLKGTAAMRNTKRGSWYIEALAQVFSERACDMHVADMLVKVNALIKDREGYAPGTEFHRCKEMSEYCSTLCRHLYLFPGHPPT
Sequence of Caspase 4 (P49662 81-270 limits assumed, species assumed): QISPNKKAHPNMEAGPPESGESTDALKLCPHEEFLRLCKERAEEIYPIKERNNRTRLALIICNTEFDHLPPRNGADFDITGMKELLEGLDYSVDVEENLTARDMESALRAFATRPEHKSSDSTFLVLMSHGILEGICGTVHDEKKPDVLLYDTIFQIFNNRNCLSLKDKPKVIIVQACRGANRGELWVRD
Sequence of Caspase 4 (P49662 290-377 limits assumed, species assumed): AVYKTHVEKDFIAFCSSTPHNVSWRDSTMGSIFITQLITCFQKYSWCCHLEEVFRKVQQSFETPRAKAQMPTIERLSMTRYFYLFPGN
Sequence of Caspase 10 (Q92851 220-415 limits assumed): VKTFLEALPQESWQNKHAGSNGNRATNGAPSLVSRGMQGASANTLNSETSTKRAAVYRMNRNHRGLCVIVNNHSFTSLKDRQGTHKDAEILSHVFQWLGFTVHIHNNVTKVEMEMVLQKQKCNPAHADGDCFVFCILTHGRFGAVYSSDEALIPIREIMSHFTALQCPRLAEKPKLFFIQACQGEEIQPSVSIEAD
Sequence of Caspase 10 (Q92851 416-521 limits assumed): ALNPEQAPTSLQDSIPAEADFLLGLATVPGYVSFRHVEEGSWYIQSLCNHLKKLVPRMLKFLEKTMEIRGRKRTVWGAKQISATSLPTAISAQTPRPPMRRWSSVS
Sequence of Caspase 3 (P42574 29-175 limits assumed, species assumed): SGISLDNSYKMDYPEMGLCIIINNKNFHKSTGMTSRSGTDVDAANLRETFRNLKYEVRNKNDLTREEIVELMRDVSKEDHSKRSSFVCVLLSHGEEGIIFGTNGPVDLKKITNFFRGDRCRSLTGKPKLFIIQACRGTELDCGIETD
Sequence of Caspase 3 (P42574 176-277 limits assumed, species assumed): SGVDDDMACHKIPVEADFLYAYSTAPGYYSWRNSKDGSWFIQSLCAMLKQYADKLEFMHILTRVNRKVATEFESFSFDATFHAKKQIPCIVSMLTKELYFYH
Sequence of Caspase 9 (P55211 1-315 limits assumed, species assumed): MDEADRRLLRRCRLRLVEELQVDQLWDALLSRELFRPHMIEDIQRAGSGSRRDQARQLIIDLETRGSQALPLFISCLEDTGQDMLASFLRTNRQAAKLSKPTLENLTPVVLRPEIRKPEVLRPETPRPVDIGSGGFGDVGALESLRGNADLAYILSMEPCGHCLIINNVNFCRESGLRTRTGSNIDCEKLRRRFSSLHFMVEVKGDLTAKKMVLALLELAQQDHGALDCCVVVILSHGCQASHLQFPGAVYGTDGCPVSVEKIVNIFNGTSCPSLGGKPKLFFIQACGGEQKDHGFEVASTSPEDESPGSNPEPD
Sequence of Caspase 9 (P55211 331-416 limits assumed, species assumed): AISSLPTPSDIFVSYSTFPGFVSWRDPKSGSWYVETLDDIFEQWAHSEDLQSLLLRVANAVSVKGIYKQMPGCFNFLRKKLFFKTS

With `N=C(N)c1ccc2oc(C=Cc3nc4ccc(C(=N)N)cc4[nH]3)cc2c1` [Compound 723, 2-[2-(5-carbamimidoyl-benzofuran-2-yl)-vinyl]-3H-benzoimidazole-5-carboxamidine] the “effectiveness against Influenza infection” value (Influenza) was “comparatively poorly”, the “effectiveness in inhibiting PRRS” value (PRRS virus) was “showed effectiveness” and the “effectiveness against Bovine Corona virus” value (Bovine Corona virus) was “effective”. For the same molecule, the “protection on challenged mice” value (Ebola virus [1]) was 90%, the survival (Ebola virus [1]) was 25% and the treated animals survived (Ebola virus [1]) was 100%. For the same molecule, the “protection, measured in terms of survival” value (Marburg virus [2]) was 100%, the infection inhibition (Ebola virus [3]) was 100% and the EC50 (Ebola virus [3]; Zaire ebolavirus) was ≤ 50 nM. For the same molecule, the EC50 (Marburg virus [4]) was ≤ 50 nM, the infection inhibition (Marburg virus [4]) was 100% and the “effectiveness against Dengue serotypes” value (Dengue serotypes) was “effective”. The “protection against Paramyxovirus challenge” value [5] was “effective in conferring a great degree of protection”, the “effectiveness in treating HBV (reduction in viral copies)” value (Hepatitis B virus (HBV)) was “effectiveness, at nanomolar levels” and the “t1/2 in mammalian models” value [6] was “two-four”. The “concentrations in the liver and kidney” value [7] was “high”, the “concentrations in the spleen and the heart” value [7] was “relatively low” and the half-life (in vivo) was 2 h. For the same molecule, the half-life [8] was 4 h, the lethal dose ([9]; administered on day zero) was 200 mg/kg and the “impact of dosing on weight over time” value ([9]; below 200 mg/kg) was “little or no impact”. The “dose at which compound is well tolerated” value ([9]; in vivo) was “up to 100 mg/kg” and the CC50 (wide variety of cells) was “well above safety thresholds”.

In the case of `N=C(N)c1ccc(-c2ccc(-c3ccc(C(=N)N)cc3)s2)cc1` [Compound 510, benzenecarboxylmidamide,4,4′-(2,5-thiphenediyl)bis], the EC50 (cowpox virus [10]) is reported as ~250 nM, the “protection against Ebola virus, therapeutic” value (Ebola virus [1]) is reported as “provided protection” and the “protection against lethal challenge” value (Ebola virus [1]) is reported as 100%. The “protection, measured in terms of survival” value (Marburg virus [2]) was 100%, the “inhibition measured in terms of cell survival” value (Ebola virus [3]) was 100% and the “inhibition measured in terms of cell survival” value (Marburg virus [4]) was 100%. The HCV viral titers (Hepatitis C Virus) was “zero”, the “inhibition of Lassa Fever Virus” value (Lassa Fever Virus) was “effective” and the “inhibition of West Nile Virus” value (West Nile Virus) was 100%. The “protection against Paramyxovirus challenge” value [5] was “effective”, the “inhibition of Caspase 1” value (Caspase 1) was “elevated inhibition; also recorded: to some degree” and the “inhibition of Caspase 2” value (Caspase 2) was “elevated inhibition; also recorded: selective inhibition”. The “inhibition of Caspase 3” value (Caspase 3) was “selective inhibition”, the “inhibition of Caspase 8” value (Caspase 8) was “elevated inhibition; also recorded: selective inhibition” and the “inhibition of Caspase 4” value (Caspase 4) was “not”. For the same molecule, the “inhibition of Caspase 9” value (Caspase 9) was “not” and the “inhibition of Caspase 10” value (Caspase 10) was “not”.

For `Cc1cc(NCCCN(C)C)c2ccc3c(ccc4c(NCCCN(C)C)cc(C)nc43)c2n1.Cl.Cl.Cl.Cl` [Compound 365, Quino[8,7-h]quinoline-1,7-diamine,N,N′-bis[3-(dimethylamino)propyl]-3,9-dimethyl-tetrahydrochloride], the “effectiveness against Influenza infection” value (Influenza) was “effective”, the EC100 (PRRS virus) was 3.2 µM and the “effectiveness in inhibiting PRRS” value (PRRS virus) was “showed effectiveness”. The “effectiveness against Bovine Corona virus” value (Bovine Corona virus) was “effective; also recorded: inhibited”, the “inhibition of Ebola virus” value (Ebola virus [3]) was 100% and the “suppression of Marburg Virus” value (Marburg virus [4]) was “suppressed”. The “inhibition of HCV (luciferase signal)” value (Hepatitis C Virus) was “complete inhibition”, the “effectiveness against Dengue serotypes” value (Dengue serotypes) was “effective” and the “inhibition of HIV” value (HIV) was 100%. For the same molecule, the EC50 (Rift Valley Fever Virus) was 370 nM, the “inhibition of Rift Valley Fever Virus (zero viral particle release)” value (Rift Valley Fever Virus) was 100% and the “inhibition of Lassa Fever Virus” value (Lassa Fever Virus) was “suppressed”. The “inhibition of SARS” value (SARS) was “inhibited”, the survival outcomes (cowpox virus [11]) was “did not ultimately improve survival outcomes” and the survival times (cowpox virus [11]) was “uniformly extend survival times”. For the same molecule, the “cytokine levels relative to agent-free vehicle” value (PBMC) was “not substantially different”, the “time course of serum concentration” value [12] was “leaves the serum relatively rapidly” and the “dose at which all animals survived” value [13] was “up to 25 mg/kg”. The weight after administration ([13]; up to 25 mg/kg) was “not significantly impacted”.
